From patent US11878966B2, “Substituted 4-benzyl and 4-benzoyl piperidine derivates” (89BIO LTD, priority 2015, dated 2024)
pIC50: −log10 of the molar value.

biological target: T1, recombinant human baculovirus-expressed GST-tagged FASN (Homo sapiens, UniProt P49327); experiment: FASN enzyme activity assay: fluorescence-based detection of CoA with CPM; format: biochemical; settings: 5 nM FASN, 150 μM NADPH, 10 μM acetyl-CoA, 25 μM malonyl-CoA, 90 minutes incubation
T1 construct: GST; host or cells: baculovirus expression system (insect cells implied)
Summary of the method: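 IC50 values were fitted (variable-slope sigmoid) to percent inhibition from CPM fluorescence (390/530 nm) reporting free CoA after a 30 min labelling step. The reaction ran 90 min after malonyl-CoA (25 μM) addition, with 10 μM acetyl-CoA, 150 μM NADPH, 5 nM recombinant GST-FASN, 50 mM HEPES pH 7.5 and 0.5% DMSO.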

T1 sequence (P49327 whole entry): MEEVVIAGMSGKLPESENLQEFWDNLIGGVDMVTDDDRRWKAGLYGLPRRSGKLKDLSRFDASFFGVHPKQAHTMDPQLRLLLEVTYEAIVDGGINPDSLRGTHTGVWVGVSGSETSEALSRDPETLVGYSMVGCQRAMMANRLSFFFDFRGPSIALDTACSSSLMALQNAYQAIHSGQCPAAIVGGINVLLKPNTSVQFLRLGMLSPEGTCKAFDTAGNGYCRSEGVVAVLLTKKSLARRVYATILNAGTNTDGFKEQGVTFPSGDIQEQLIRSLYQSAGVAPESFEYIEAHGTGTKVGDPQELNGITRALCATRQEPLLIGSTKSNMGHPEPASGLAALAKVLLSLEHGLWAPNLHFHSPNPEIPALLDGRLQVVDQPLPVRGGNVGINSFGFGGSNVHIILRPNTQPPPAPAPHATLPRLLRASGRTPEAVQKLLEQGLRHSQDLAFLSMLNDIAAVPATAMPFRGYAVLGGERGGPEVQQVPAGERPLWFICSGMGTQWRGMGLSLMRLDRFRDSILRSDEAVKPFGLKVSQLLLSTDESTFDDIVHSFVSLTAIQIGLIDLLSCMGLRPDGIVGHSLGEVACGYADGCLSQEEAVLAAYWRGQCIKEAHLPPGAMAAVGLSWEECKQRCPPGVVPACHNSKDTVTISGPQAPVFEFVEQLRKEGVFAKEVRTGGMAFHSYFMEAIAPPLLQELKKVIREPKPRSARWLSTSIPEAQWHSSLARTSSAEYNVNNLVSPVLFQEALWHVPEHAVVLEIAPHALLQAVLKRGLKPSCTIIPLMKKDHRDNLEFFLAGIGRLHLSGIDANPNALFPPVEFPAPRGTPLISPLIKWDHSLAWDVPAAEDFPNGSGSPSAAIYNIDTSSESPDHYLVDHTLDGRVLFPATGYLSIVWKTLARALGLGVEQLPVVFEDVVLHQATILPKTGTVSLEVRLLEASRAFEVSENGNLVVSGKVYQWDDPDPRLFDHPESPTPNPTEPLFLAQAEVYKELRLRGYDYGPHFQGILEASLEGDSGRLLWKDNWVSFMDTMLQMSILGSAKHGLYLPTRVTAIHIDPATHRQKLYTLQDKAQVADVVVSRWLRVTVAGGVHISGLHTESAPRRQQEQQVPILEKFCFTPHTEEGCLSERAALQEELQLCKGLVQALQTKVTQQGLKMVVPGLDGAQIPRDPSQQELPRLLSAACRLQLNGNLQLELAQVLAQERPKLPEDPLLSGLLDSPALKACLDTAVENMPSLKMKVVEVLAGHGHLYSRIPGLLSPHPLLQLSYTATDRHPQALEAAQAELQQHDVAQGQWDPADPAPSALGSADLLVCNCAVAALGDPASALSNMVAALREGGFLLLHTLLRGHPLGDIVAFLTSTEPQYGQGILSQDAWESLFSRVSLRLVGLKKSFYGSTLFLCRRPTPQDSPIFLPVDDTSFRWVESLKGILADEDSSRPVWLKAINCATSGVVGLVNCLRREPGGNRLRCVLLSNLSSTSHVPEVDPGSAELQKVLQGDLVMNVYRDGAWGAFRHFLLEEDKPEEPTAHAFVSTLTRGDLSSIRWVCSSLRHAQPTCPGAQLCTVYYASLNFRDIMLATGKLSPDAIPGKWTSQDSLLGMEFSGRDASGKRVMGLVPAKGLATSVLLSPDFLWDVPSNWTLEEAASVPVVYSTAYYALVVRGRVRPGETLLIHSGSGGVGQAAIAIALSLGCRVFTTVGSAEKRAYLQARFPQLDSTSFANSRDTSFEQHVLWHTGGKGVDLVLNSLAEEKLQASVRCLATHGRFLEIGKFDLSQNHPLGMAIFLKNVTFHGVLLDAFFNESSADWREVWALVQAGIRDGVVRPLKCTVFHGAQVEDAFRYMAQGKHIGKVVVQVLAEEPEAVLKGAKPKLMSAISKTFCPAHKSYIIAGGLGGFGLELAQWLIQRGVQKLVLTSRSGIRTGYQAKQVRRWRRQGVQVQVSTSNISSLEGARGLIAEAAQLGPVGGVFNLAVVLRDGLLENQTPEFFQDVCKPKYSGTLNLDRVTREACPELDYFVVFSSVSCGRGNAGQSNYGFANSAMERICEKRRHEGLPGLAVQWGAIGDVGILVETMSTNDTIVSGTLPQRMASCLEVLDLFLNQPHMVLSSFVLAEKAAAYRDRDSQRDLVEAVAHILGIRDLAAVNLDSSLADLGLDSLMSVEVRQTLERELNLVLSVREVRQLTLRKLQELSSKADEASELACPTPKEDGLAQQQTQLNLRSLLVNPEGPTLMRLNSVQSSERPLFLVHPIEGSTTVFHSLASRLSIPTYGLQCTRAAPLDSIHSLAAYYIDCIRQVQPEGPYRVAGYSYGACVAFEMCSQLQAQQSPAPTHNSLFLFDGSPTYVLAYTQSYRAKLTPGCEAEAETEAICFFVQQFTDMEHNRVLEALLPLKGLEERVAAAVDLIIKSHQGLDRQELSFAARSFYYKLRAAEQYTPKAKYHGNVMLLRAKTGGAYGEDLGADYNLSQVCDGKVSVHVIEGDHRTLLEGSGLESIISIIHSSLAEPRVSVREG

| SMILES | pIC50 |
| --- | --- |
| O=C(C1CC1)N1CC=C(Cc2ccc(-c3ccc4cccnc4c3)cc2)CC1 [Example 174] | 6.00 to 7.00 |
| Cc1c(-c2ccc(C(OCCCN3CCOCC3)C3CCN(C(=O)[C@H]4CCCO4)CC3)cc2)ccc2cccnc12 (stereo partly drawn) [Example 84, {4-[[4-(8-Methylquinolin-7-yl)-phenyl]-(3-morpholin-4-yl-propoxy)-methyl]-piperidin-1-yl}-(R)-tetrahydrofuran-2-yl-methanone] | 7.00 to 9.00 |
| O=C(C1CC1)N1CCC(Cc2ccc(-c3cnc4ccccc4c3)cc2)CC1 [Example 3, Cyclopropyl-[4-(4-quinolin-3-yl-benzyl)-piperidin-1-yl]-methanone] | 7.00 to 9.00 |
| O=C([C@H]1CCCO1)N1CCC(Cc2ccc(-c3ccc4cccnc4c3Cl)cc2)CC1 [Example 31, {4-[4-(8-Chloroquinolin-7-yl)-benzyl]-piperidin-1-yl}-(R)-tetrahydrofuran-2-yl-methanone] | 7.00 to 9.00 |
| O=C(C1CCCO1)N1CCC(F)(Cc2ccc(-c3cnc4ccccc4c3)cc2)CC1 (stereo in doubt) [Example 189, (R)-(4-fluoro-4-(4-(quinolin-3-yl)benzyl)piperidin-1-yl)(tetrahydrofuran-2-yl)methanone] | 7.00 to 9.00 |
| CCC(=O)N1CC=C(Cc2ccc(-c3cnc4ccccc4c3)cc2)CC1 [Example 162, 1-(4-(4-(quinolin-3-yl)benzyl)-5,6-dihydropyridin-1(2H)-yl)propan-1-one] | 7.00 to 9.00 |
| CC(C)(c1ccc(-c2cnc3ccccc3c2)cc1)C1CCN(C(=O)C2CC2)CC1 [Example 204, Cyclopropyl(4-(2-(4-(quinolin-3-yl)phenyl)propan-2-yl)piperidin-1-yl)methanone] | 6.00 to 7.00 |
| CCC(=O)N1CCC(C(O)c2ccc(-c3ccc4cnccc4c3)cc2F)CC1 (stereo not shown) [Example 128, 1-{4-[(2-Fluoro-4-isoquinolin-6-yl-phenyl)-hydroxy-methyl]-piperidin-1-yl}-propan-1-one] | 7.00 to 9.00 |
| Cc1c(-c2ccc(CC3CCN(C(=O)[C@H]4CCCO4)CC3)cc2)cnc2ccccc12 [Example 15, {4-[4-(4-Methylquinolin-3-yl)-benzyl]-piperidin-1-yl}-(R)-tetrahydrofuran-2-yl-methanone] | 7.00 to 9.00 |
| Cc1c(-c2ccc(C3(C4CCN(C(=O)[C@H]5CCCO5)CC4)CC3)cc2)ccc2cccnc12 [Example 79, (4-{1-[4-(8-Methylquinolin-7-yl)-phenyl]-cyclopropyl}-piperidin-1-yl)-(R)-tetrahydrofuran-2-yl-methanone] | 5.00 to 6.00 |
| O=C(C1CC1)N1CCC(C2(c3ccc(-c4ccc5cccnc5c4)cc3)OCCCO2)CC1 [Example 122, Cyclopropyl-{4-[2-(4-quinolin-7-yl-phenyl)-1,3-dioxinan-2-yl]-piperidin-1-yl}-methanone] | 5.00 to 6.00 |
| Cc1c(-c2ccc(CC3=CCN(C(=O)C4CC4)CC3)cc2)ccc2cccnc12 [Example 184, Cyclopropyl(4-(4-(8-methylquinolin-7-yl)benzyl)-3,6-dihydropyridin-1(2H)-yl)methanone] | 6.00 to 7.00 |
| CC(c1ccc(-c2cnc3ccccc3c2)cc1)C1CCN(C(=O)C2CC2)CC1 (stereo not shown) [Example 58, Cyclopropyl-{4-[1-(4-quinolin-3-yl-phenyl)-ethyl]-piperidin-1-yl}-methanone] | 7.00 to 9.00 |
| O=C(C1CC1)N1CCC(Cc2ccc(-c3cnc4ccccc4c3Cl)cc2)CC1 [Example 20, {4-[4-(4-Chloroquinolin-3-yl)-benzyl]-piperidin-1-yl}-cyclopropylmethanone] | 7.00 to 9.00 |
| CC(c1ccc(-c2ccc3cccnc3c2)cc1)C1CCN(C(=O)[C@H]2CCCO2)CC1 (stereo partly drawn) [Example 51, {4-[1-(4-Quinolin-7-yl-phenyl)-ethyl]-piperidin-1-yl}-(R)-tetrahydrofuran-2-yl-methanone] | 7.00 to 9.00 |
| CCC(=O)N1CCC(Cc2ccc(-c3ccc4cccnc4c3Cl)cc2)CC1 [Example 29, 1-{4-[4-(8-Chloroquinolin-7-yl)-benzyl]-piperidin-1-yl}-propan-1-one] | 7.00 to 9.00 |
| CC(c1ccc(-c2cnc3ccccc3c2Cl)cc1)C1CCN(C(=O)C2CC2)CC1 (stereo not shown) [Example 76, (4-{1-[4-(4-Chloroquinolin-3-yl)-phenyl]-ethyl}-piperidin-1-yl)-cyclopropylmethanone] | 7.00 to 9.00 |
| O=C(C1CC1)N1CC=C(Cc2ccc(-c3cnc4ccccc4c3Cl)cc2)CC1 [Example 198, (4-(4-(4-Chloroquinolin-3-yl)benzyl)-3,6-dihydropyridin-1(2H)-yl)(cyclopropyl)methanone] | 6.00 to 7.00 |
| O=C(c1ccc(-c2cnc3ccccc3c2)cc1)C1CCN(C(=O)[C@H]2CCCO2)CC1 [Example 49, [4-(4-Quinolin-3-yl-benzoyl)-piperidin-1-yl]-(R)-tetrahydrofuran-2-yl-methanone] | 7.00 to 9.00 |
| O=C(C1CCCO1)N1CC=C(Cc2ccc(-c3ccc4cccnc4c3)cc2)CC1 (stereo in doubt) [Example 188, (R)-(4-(4-(quinolin-7-yl)benzyl)-5,6-dihydropyridin-1(2H)-yl)(tetrahydrofuran-2-yl)methanone] | 7.00 to 9.00 |

| SMILES | pIC50 |
| --- | --- |
| CCC(=O)N1CCC(Cc2ccc(-c3cnc4ccccc4c3)cc2)CC1 [Example 1, 1-[4-(4-Quinolin-3-yl-benzyl)-piperidin-1-yl]-propan-1-one] | 7.00 to 9.00 |
| O=C(C1CC1)N1CC=C(Cc2ccc(-c3cncc4ccccc34)cc2)CC1 [Example 178, Cyclopropyl(4-(4-(isoquinolin-4-yl)benzyl)-5,6-dihydropyridin-1(2H)-yl)methanone] | 6.00 to 7.00 |
| O=C(C1CC1)N1CCC(C2(c3ccc(-c4cnc5ccccc5c4)cc3)OCCO2)CC1 [Example 141, Cyclopropyl-(4-[2-(4-quinolin-3-yl-phenyl)-1,3-dioxolan-2-yl]-piperidin-1-yl)-methanone] | 6.00 to 7.00 |
| O=C(C1CC1)N1CCC(Cc2ccc(-c3cc4ccccc4cn3)cc2)CC1 [Example 27, Cyclopropyl-[4-(4-isoquinolin-3-yl-benzyl)-piperidin-1-yl]-methanone] | 5.00 to 6.00 |
| CCC(OC)(c1ccc(-c2cnc3ccccc3c2)cc1)C1CCN(C(=O)C2CC2)CC1 (stereo not shown) [Example 211, Cyclopropyl-{4-[1-methoxy-1-(4-quinolin-3-yl-phenyl)-propyl]-piperidin-1-yl}-methanone] | 5.00 to 6.00 |
| Cc1c(-c2ccc(C(F)(F)C3CCN(C(=O)[C@H]4CCCO4)CC3)cc2)cnc2ccccc12 [Example 11, (4-{Difluoro-[4-(4-methylquinolin-3-yl)-phenyl]-methyl}-piperidin-1-yl)-(R)-tetrahydrofuran-2-yl-methanone] | 7.00 to 9.00 |
| CCNC(=O)N1CCC(Cc2ccc(-c3ccc4cccnc4c3C)cc2)CC1 [Example 229, N-ethyl-4-[[4-(8-methyl-7-quinolyl)phenyl]methyl]piperidine-1-carboxamide] | 7.00 to 9.00 |
| Cc1c(-c2ccc(CC3(F)CCN(C(=O)C4CC4)CC3)cc2)cnc2ccccc12 [Example 191, Cyclopropyl(4-fluoro-4-(4-(4-methylquinolin-3-yl)benzyl)piperidin-1-yl)methanone] | 7.00 to 9.00 |
| CN(C)S(=O)(=O)N1CCC(C2(c3ccc(-c4ccc5ncccc5c4)cc3)OCCO2)CC1 [Example 100, 4-[2-(4-Quinolin-6-yl-phenyl)-1,3-dioxolan-2-yl]-piperidine-1-sulfonic acid dimethylamide] | 5.00 to 6.00 |
| CCNC(=O)N1CCC(Cc2ccc(-c3ccc4cccnc4c3OC)cc2)CC1 [Example 230, N-ethyl-4-[[4-(8-methoxy-7-quinolyl)phenyl]methyl]piperidine-1-carboxamide] | 7.00 to 9.00 |
| CCC(=O)N1CCC(F)(Cc2ccc(-c3cnc4ccccc4c3)cc2)CC1 [Example 161, 1-(4-fluoro-4-(4-(quinolin-3-yl)benzyl)piperidin-1-yl)propan-1-one] | 7.00 to 9.00 |
| CC(C)C(=O)N1CCC(C2(c3ccc(-c4ccc5cccnc5c4)cc3)OCCO2)CC1 [Example 111, 2-Methyl-1-{4-[2-(4-quinolin-7-yl-phenyl)-1,3-dioxolan-2-yl]-piperidin-1-yl}-propan-1-one] | 5.00 to 6.00 |
| CCC(=O)N1CCC(F)(Cc2ccc(-c3cnc4ccccc4c3Cl)cc2)CC1 [Example 193, 1-(4-(4-(4-chloroquinolin-3-yl)benzyl)-4-fluoropiperidin-1-yl)propan-1-one] | 7.00 to 9.00 |
| CCC(=O)N1CCC(F)(C(OC)c2ccc(-c3ccc4cccnc4c3C)cc2)CC1 (stereo not shown) [Example 225, 1-(4-Fluoro-4-{methoxy-[4-(8-methyl-quinolin-7-yl)-phenyl]-methyl}-piperidin-1-yl)-propan-1-one] | 7.00 to 9.00 |
| O=C([C@H]1CCCO1)N1CCC(F)(Cc2ccc(-c3cnc4ccccc4c3Cl)cc2)CC1 [Example 201, (R)-(4-(4-(4-chloroquinolin-3-yl)benzyl)-4-fluoropiperidin-1-yl)(tetrahydrofuran-2-yl)methanone] | 7.00 to 9.00 |
| CCC(=O)N1CCC(C(C)c2ccc(-c3cnc4ccccc4c3Cl)cc2)CC1 (stereo not shown) [Example 75, 1-(4-{1-[4-(4-Chloroquinolin-3-yl)-phenyl]-ethyl}-piperidin-1-yl)-propan-1-one] | 7.00 to 9.00 |
| CCC(=O)N1CCC(F)(Cc2ccc(-c3cncc4ccccc34)cc2)CC1 [Example 167, 1-(4-fluoro-4-(4-(isoquinolin-4-yl)benzyl)piperidin-1-yl)propan-1-one] | 7.00 to 9.00 |
| Cc1c(-c2ccc(CC3CCN(C(=O)N(C)C)CC3)cc2)ccc2cccnc12 [Example 233, N,N-dimethyl-4-[[4-(8-methyl-7-quinolyl)phenyl]methyl]piperidine-1-carboxamide] | 7.00 to 9.00 |
| CCC(=O)N1CCC(C(=O)c2ccc(-c3ccc4cccnc4c3)cc2)CC1 [Example 124, 1-[4-(4-Quinolin-7-yl-benzoyl)-piperidin-1-yl]-propan-1-one] | 5.00 to 6.00 |
| O=C([C@H]1CCCO1)N1CCC(O)(Cc2ccc(-c3cc4ccccc4cn3)cc2)CC1 [Example 146, [4-Hydroxy-4-(4-isoquinolin-3-yl-benzyl)-piperidin-1-yl]-(R)-tetrahydro-furan-2-yl-methanone] | 6.00 to 7.00 |
